Assays:
[1] = Stability in mouse plasma (accelerated, freeze-thaw, frozen PK samples); assay type: in vitro ADME; conditions: for %-ACC, frozen PK sample stability: mouse plasma PK samples re-extracted after 1.5 years at <−70 °C; for %-ACC (% accuracy vs nominal): 3 freeze-thaw cycles (<−70 °C / bench)
Method: (§1) For stability testing, QC samples were prepared by spiking plasma with QC stock solutions. These stability samples were stored for the predetermined time periods before extraction (accelerated stability and freeze–thaw stability) or after extraction (autosampler stability) and were run with freshly prepared calibrator standards. For accelerated stability, samples were stored at 4 °C and at room temperature for 4 h and 24 h prior to sample extraction. […] Assay A compounds (GEM-IB and IB) were also tested at 1 h and 2 h exposed to 4 °C and at room temperature to evaluate for which duration GEM-IB is stable.
(§2) Freeze–thaw cycle stability was assessed by storing the stability samples overnight in the freezer (<−70 °C) and thawing them the next day on the bench. Once thawed, samples were placed back into the freezer. This was carried out for three freeze–thaw cycles for all compounds.
(§3) To assess the stability of study samples, PK samples were re-extracted after storage at <−70 °C for 1.5 years (see Supplementary Table S4).
(§4) Method development and validation was conducted following applicable FDA guidelines for bioanalytical assays, as considered fit for purpose. Specificity. Endogenous interferences were excluded by analysis of blank plasma from 6 different individual lots of plasma. The lower limit of quantification (LLOQ) was determined as the lowest concentration consistently achieving an accuracy better than ±20% of the nominal concentration, with imprecision ≤20%. Predefined acceptance criteria. The performance of the assay was considered acceptable if intra- and inter-day imprecision (coefficient of variance, %CV) at each concentration was ≤15%, except at the LLOQ (≤20%). Intra- and inter-day accuracy had to be ±15% of the nominal value, except at the LLOQ (±20%). Calibration curves had to have a correlation coefficient (r) of 0.99 or better. Analytical recovery and imprecision. Intra- and inter-day analytical accuracy and imprecision were tested at least at four concentration levels depending on the LLOQ for each compound. Intra-day imprecision and accuracy were determined with n = 6 per QC level. Inter-day imprecision and accuracy were measured over 3 days, with six replicates for each QC concentration (n = 18). Extraction efficiency and matrix effect. Extraction efficiency for GEM-IB and metabolites was established by comparing the signals of the analytes after the extraction of QCs (n = 6/concentrations), with the signals of the extracted blank matrix spiked with the respective concentrations of analytes after the extraction procedure. The matrix effect was determined by comparing the analyte LC-MS/MS signal after spiking of the analyte into the extracted blank matrix (matrix from 6 different individual lots, analyte concentrations as for the QC samples) with the HPLC-MS/MS signal of the same amount of analyte in neat solution [25]. Carry-over. Carry-over was assessed by injecting blank buffer samples after analysis of the highest calibrators. Carry-over was considered insignificant if there was no signal at the relevant retention times exceeding 20% of the analyte signals at the LLOQ. Stability. QC samples were freshly prepared. One set was extracted and was analyzed immediately to determine baseline signals.

[2] = Stability in dog plasma (accelerated, freeze-thaw, frozen PK samples); assay type: in vitro ADME; conditions: for %-ACC, frozen PK sample stability: dog plasma PK samples re-extracted after 1.5 years at <−70 °C; for %-ACC (% accuracy vs nominal): 3 freeze-thaw cycles (<−70 °C / bench)
Method: as §1, §2, §3, §4

[3] = Autosampler stability of extracted dog plasma samples at 4 °C; assay type: physicochemical
Method: The stability of extracted dog and mouse plasma samples in the autosampler at 4 °C was established for 24 and 48 h. Except for GEM-IB, in mouse and dog plasma extracts, all analytes were within ±20% of the nominal enriched concentration for up to 48 h in the autosampler. GEM-IB was stable for up to 24 h under these conditions.
as §4, with “signals. Analyte stability in plasma was evaluated at two QC concentration levels (n = 3/concentration level) under different conditions: 1, 2, and 24 h at room temperature and at 4 °C. In addition, stability after extraction was determined after 24 h and 48 h at 4 °C in the autosampler and for up to 3 freeze (−70 °C)–thaw (ambient) cycles. Stability was assessed by comparing analyte concentrations with baseline (t0) concentrations. Stability was assumed when the results were within ±20% of the baseline concentrations. Long-term stability estimates were performed by re-extraction of samples used during the PK study (n = 6). Samples were initially analyzed for the PK assessment and were stored for 1.5 years (GEM-IB and IB) and 2.5 years (GEM, GEMMP, dFdU, and dFdU-MP) at <−70 °C prior to reanalysis. Stability was assessed by comparing analyte concentrations with the initial assessments. Stability was acceptable when the results were within ±20% of the baseline concentrations and the percent standard deviation (%-SD) was below 25%.” for “signals.”

[4] = mouse plasma, 2 hours 4°C / on ice (IB and GEM-IB, footnote)
[5] = mouse plasma, 2 hours RT (IB and GEM-IB, footnote)
[6] = dog plasma, 2 hours 4°C (IB and GEM-IB, footnote)
[7] = dog plasma, 2 hours RT (IB and GEM-IB, footnote)

SMILES	%-ACC, frozen PK sample stability [1]	%-ACC (% accuracy vs nominal) ([1]; mouse plasma)	%-ACC (percent mean accuracy vs nominal) ([1]; mouse plasma, 4 hours 4°C)	%-ACC (percent mean accuracy vs nominal) ([1]; mouse plasma, 4 hours RT)	%-ACC (percent mean accuracy vs nominal) ([1]; mouse plasma, 24 hours 4°C)	%-ACC (percent mean accuracy vs nominal) ([1]; mouse plasma, 24 hours RT)	%-ACC, frozen PK sample stability [2]	%-ACC (% accuracy vs nominal) ([2]; dog plasma)	%-ACC (percent mean accuracy vs nominal) ([2]; dog plasma, 4 hours 4°C)	%-ACC (percent mean accuracy vs nominal) ([2]; dog plasma, 4 hours RT)	%-ACC (percent mean accuracy vs nominal) ([2]; dog plasma, 24 hours 4°C)	%-ACC (percent mean accuracy vs nominal) ([2]; dog plasma, 24 hours RT)	%-ACC (% accuracy vs nominal) ([3]; 24 hours autosampler 4 °C)	%-ACC (% accuracy vs nominal) ([3]; 48 hours autosampler 4 °C)	%-ACC (percent mean accuracy vs nominal) [1, 4]	%-ACC (percent mean accuracy vs nominal) [1, 5]	%-ACC (percent mean accuracy vs nominal) [2, 6]	%-ACC (percent mean accuracy vs nominal) [2, 7]	also measured
Nc1ccn([C@@H]2O[C@H](COP(=O)(O)O)[C@@H](O)C2(F)F)c(=O)n1 [GEMMP, gemcitabine-5′-phosphate]	failed the criteria	92.4%	91.9%	87.9%	91.4%	88.1%	failed the criteria	92.4%	89.5%	98.2%	88.1%	98.2%	92.4%	90.0%					
CCCCCN(C)CCC(O)(P(=O)(O)O)P(=O)(O)O [IB, ibandronate]		94.5%			99.7%	101.7%		106.5%			108.8%	118.5%	111.2%	107.7%	97.0%	106.4%	99.3%	101.0%	accelerated stability, result in words ([1]; mouse plasma, up to 24 h at 4 °C / on ice and room temperature): stable; freeze–thaw stability, result in words ([1]; one and two freeze–thaw cycles, matrix not stated, presumably mouse plasma): stable; accelerated stability, result in words ([2]; dog plasma, up to 24 h at 4 °C / on ice and room temperature): stable
CCCCCN(C)CCC(O)(P(=O)(O)O)P(=O)(O)OP(=O)(O)OC[C@H]1O[C@@H](n2ccc(N)nc2=O)C(F)(F)[C@@H]1O (some centres unmarked) [GEM-IB]		16.9%			2.9%	0.0%		84.7%			83.6%	13.7%	86.2%	63.4%	64.2%	31.0%	99.3%	83.5%	percent of the nominal concentration ([1]; mouse plasma, 1 h on ice): 89.2% ± 7.0; time stable on ice ([1]; mouse plasma, on ice): up to 1 h; time stable on ice ([2]; dog plasma, on ice): up to 24 h
Nc1ccn([C@@H]2O[C@H](CO)[C@@H](O)C2(F)F)c(=O)n1 [GEM, gemcitabine]	94.2% ± 11.8	103.4%	94.5%	89.3%	87.9%	91.0%	90.4% ± 23.9	103.4%	102.7%	101.7%	94.8%	95.4%	100.7%	106.8%					

Now from value to compound, other results behind:

%-ACC, frozen PK sample stability [1]	%-ACC (% accuracy vs nominal) ([1]; mouse plasma)	%-ACC (percent mean accuracy vs nominal) ([1]; mouse plasma, 4 hours 4°C)	%-ACC (percent mean accuracy vs nominal) ([1]; mouse plasma, 4 hours RT)	%-ACC (percent mean accuracy vs nominal) ([1]; mouse plasma, 24 hours 4°C)	%-ACC (percent mean accuracy vs nominal) ([1]; mouse plasma, 24 hours RT)	%-ACC, frozen PK sample stability [2]	%-ACC (% accuracy vs nominal) ([2]; dog plasma)	%-ACC (percent mean accuracy vs nominal) ([2]; dog plasma, 4 hours 4°C)	%-ACC (percent mean accuracy vs nominal) ([2]; dog plasma, 4 hours RT)	%-ACC (percent mean accuracy vs nominal) ([2]; dog plasma, 24 hours 4°C)	%-ACC (percent mean accuracy vs nominal) ([2]; dog plasma, 24 hours RT)	%-ACC (% accuracy vs nominal) ([3]; 24 hours autosampler 4 °C)	%-ACC (% accuracy vs nominal) ([3]; 48 hours autosampler 4 °C)	%-ACC (percent mean accuracy vs nominal) [1, 4]	%-ACC (percent mean accuracy vs nominal) [1, 5]	%-ACC (percent mean accuracy vs nominal) [2, 6]	%-ACC (percent mean accuracy vs nominal) [2, 7]	SMILES	also measured
failed the criteria	87.7%	83.0%	80.5%	81.9%	81.5%	failed the criteria	87.7%	84.2%	86.7%	85.2%	80.5%	92.6%	84.8%					O=c1ccn([C@@H]2O[C@H](COP(=O)(O)O)[C@@H](O)C2(F)F)c(=O)[nH]1 [dFdUMP, 2′,2′-difluoro-2′-deoxyuridine-5′-phosphate]	
failed the criteria	109.5%	84.5%	83.8%	87.0%	85.2%	failed the criteria	109.5%	100.5%	101.3%	105.3%	98.4%	99.0%	102.0%					O=c1ccn([C@@H]2O[C@H](CO)[C@@H](O)C2(F)F)c(=O)[nH]1 [dFdU, 2′,2′-difluoro-2′-deoxyuridine]	
